What all share (assay type): cell-based
Design in all cases: GPCRome screening signal at PTGIR / GPCRome screening signal at PTH1R / GPCRome screening signal at PTH2R / GPCRome screening signal at QRFP / GPCRome screening signal at RXFP2 / GPCRome screening signal at RXFP3 / GPCRome screening signal at RXFP4 / GPCRome screening signal at S1PR2 / GPCRome screening signal at S1PR3 / GPCRome screening signal at S1PR4 / GPCRome screening signal at S1PR5 / GPCRome screening signal at SCTR / GPCRome screening signal at SSTR2 / GPCRome screening signal at SSSTR / GPCRome screening signal at SSTR4 / GPCRome screening signal at SSTR5 / GPCRome screening signal at SUCNR1 / GPCRome screening signal at TA1 / GPCRome screening signal at TAAR2 / GPCRome screening signal at TAAR5 / GPCRome screening signal at TAAR6 / GPCRome screening signal at TAAR8 / GPCRome screening signal at TACR1 / GPCRome screening signal at TACR2 / GPCRome screening signal at TACR3 / GPCRome screening signal at TBXA2R / GPCRome screening signal at TSHR / GPCRome screening signal at UTS2R / GPCRome screening signal at VIPR2 / GPCRome screening signal at GPR68 no V2 Tail / GPCRome screening signal at GRM2 / GPCRome screening signal at GRM3: reference not given here

In test [1] the target is T1, 320 non-olfactory GPCRs (Homo sapiens, UniProt Q96RI9).
T1 construct: expressed in transfected cells; host or cells: HTLA cells
The following applies: receptor TAAR9.

In test [2] the target is T2, 320 non-olfactory GPCRs (Homo sapiens, UniProt P49190).
T2 construct: expressed in transfected cells; host or cells: HTLA cells
The following applies: receptor PTH2R.

Test [3] has as its target 320 non-olfactory GPCRs (Homo sapiens, UniProt Q03431). The following applies: receptor PTH1R.
The target in test [4] is T3, 320 non-olfactory GPCRs (Homo sapiens, UniProt Q9NSD7).
T3 construct: expressed in transfected cells; host or cells: HTLA cells
The following applies: receptor RXFP3.

Where [5] appears, read: Fig_5f, single replicate values.

“And” between values parts separate entries of the source, which are not always exact repeats. Equal values may be shown once.
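Wherever GPCRome agonism screen response is given: fold over basal response of each receptor without drug.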

Chain of 320 non-olfactory GPCRs (Homo sapiens, UniProt Q03431) (Q03431 27-593): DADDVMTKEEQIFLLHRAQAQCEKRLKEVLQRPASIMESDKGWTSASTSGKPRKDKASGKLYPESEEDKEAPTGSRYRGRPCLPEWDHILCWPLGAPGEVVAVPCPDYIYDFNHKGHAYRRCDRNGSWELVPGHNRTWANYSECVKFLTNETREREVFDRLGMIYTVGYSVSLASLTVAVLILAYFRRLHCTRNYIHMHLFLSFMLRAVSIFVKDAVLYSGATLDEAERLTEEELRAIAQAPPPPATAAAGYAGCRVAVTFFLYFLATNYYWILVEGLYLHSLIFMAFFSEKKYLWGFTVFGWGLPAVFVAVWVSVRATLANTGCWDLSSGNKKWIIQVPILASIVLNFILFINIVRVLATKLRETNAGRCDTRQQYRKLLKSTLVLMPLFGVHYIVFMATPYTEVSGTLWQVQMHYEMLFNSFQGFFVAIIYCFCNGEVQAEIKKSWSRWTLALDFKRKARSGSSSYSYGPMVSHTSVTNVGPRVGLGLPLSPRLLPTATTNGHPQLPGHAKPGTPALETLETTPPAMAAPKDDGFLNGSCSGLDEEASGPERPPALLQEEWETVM
T1 sequence (Q96RI9 whole entry): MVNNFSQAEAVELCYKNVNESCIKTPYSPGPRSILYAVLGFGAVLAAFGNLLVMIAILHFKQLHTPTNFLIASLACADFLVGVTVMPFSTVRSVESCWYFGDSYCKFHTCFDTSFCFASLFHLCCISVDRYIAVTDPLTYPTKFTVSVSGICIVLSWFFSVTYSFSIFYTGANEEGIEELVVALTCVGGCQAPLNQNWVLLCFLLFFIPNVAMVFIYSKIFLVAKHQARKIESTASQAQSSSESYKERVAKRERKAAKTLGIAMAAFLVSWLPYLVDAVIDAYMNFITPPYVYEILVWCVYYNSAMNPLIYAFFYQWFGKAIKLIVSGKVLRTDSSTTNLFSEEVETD
T3 sequence (Q9NSD7 whole entry): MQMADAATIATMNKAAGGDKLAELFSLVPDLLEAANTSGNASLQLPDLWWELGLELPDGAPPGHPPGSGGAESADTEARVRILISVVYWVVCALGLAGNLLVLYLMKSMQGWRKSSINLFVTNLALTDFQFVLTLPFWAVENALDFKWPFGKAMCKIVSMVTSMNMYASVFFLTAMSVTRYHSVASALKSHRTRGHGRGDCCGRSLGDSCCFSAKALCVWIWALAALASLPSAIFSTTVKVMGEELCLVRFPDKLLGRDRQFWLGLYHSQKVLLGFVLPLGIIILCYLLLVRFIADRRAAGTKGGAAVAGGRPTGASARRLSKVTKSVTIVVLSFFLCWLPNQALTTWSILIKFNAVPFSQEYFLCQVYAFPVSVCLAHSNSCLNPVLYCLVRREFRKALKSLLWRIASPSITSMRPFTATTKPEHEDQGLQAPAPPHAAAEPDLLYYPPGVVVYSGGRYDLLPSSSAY
T2 sequence (P49190 25-550): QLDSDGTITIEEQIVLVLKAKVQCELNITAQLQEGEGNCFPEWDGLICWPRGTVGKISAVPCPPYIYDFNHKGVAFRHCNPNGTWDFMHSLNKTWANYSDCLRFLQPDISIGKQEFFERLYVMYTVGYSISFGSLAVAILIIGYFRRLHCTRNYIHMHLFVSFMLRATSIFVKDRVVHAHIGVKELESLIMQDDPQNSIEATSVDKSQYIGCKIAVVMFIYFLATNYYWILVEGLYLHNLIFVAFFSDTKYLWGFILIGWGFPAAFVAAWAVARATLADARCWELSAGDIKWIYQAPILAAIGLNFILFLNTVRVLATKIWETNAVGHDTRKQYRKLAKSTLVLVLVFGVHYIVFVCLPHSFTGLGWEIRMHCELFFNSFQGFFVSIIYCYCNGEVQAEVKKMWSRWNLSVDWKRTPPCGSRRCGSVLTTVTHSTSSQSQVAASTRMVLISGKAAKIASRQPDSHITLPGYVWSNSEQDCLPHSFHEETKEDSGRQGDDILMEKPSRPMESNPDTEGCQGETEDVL

As for `CCOc1cccc2cc(C(C)NCC3(O)CCCCC3)oc12` (centres unmarked) [O4LE6], the “GPCRome agonism screen response” value in test [1] (replicate values, Fig_4g) is 0.8369 and 1.036 and 0.7156 and 1.104; in test [2] (replicate values, Fig_4g) it was 1.171 and 0.1179 and 1.638 and 1.06; in test [3] (replicate values, Fig_4g), 0.6677 and 0.9983 and 1.484 and 1.06; in test [4] (replicate values, Fig_4g), 0.4551 and 0.2696 and 0.704 and 0.4767.
Turning to `CCOc1ccccc1CCC(C)NCC1(O)CCCCC1.Cl` (racemic) [Fig_5f], the “GPCRome screening signal at TAAR9” value in test [1] (setting [5]) is 1.0253 and 1.396 and 1.2735 and 0.8423. The “GPCRome screening signal at PTH2R” value in test [2] (setting [5]) is 0.8447 and 0.9374 and 0.7725 and 1.472. In test [3] (setting [5]), the “GPCRome screening signal at PTH1R” value was 2.489 and 1.041 and 1.352 and 1.077. Also, in test [4] (setting [5]), the “GPCRome screening signal at RXFP3” value is 0.4184 and 0.8431 and 0.6194 and 0.3935.

For the origin of these results see paper PMC7044277 (Nature Communications, 2020).
